Results reported in US5942631A, “Inhibitors of cholesterol esterase” (University Of New Mexico, priority 1998, dated 1999).

Molecular target: T1, cholesterol esterase (CE) (Homo sapiens, UniProt P19835)
T1 sequence (P19835 21-753): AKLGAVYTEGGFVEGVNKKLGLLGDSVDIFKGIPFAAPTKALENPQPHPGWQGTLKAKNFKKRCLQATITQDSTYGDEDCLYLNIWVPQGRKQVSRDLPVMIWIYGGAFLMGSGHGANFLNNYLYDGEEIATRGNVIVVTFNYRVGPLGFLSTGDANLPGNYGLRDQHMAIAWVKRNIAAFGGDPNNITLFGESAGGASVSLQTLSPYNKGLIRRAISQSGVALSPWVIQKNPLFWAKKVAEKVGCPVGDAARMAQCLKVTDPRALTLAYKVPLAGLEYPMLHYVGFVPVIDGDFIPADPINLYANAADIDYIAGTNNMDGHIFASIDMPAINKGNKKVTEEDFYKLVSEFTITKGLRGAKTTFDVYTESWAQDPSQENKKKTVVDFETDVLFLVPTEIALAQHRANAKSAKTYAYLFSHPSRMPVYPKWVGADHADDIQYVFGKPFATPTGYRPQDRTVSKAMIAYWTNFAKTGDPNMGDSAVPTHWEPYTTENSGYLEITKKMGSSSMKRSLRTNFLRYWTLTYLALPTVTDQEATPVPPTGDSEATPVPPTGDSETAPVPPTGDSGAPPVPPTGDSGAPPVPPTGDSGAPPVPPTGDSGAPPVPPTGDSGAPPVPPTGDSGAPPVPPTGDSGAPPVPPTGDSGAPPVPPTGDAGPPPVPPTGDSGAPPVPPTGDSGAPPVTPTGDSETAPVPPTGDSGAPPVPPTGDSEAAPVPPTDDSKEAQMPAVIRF
Assay: Kinetic inhibition studies of cholesterol esterase (CE), substrate p-nitrophenylbutyrate, Dixon plots
Assay type: biochemical
Conditions: for inhibition of CE: kinetic inhibition studies, result in words

Row | Structure (SMILES) | inhibition of CE | mode of inhibition of CE (1/V v [I] plots intersect above the x-axis, FIG. 6) | Ki (printed as "<<30", inferred because calculated Ki equals [E]/2, read-out: actual Ki for CE (suggested)) [nM]
1 | O=c1oc(Cl)ccc1CCCC1CCCCC1 [Example 4] | potent inhibitors of CE |  | 
2 | O=c1oc(Cl)ccc1CCC1CCCCC1 [Example 3, 3-(2-cyclohexylethyl)-6-chloropyronle] | potent inhibitors of CE | competitive inhibition | < 30
3 | O=c1oc(Cl)ccc1CC1CCCCC1 [Example 2] | potent inhibitors of CE |  | 
